Results: US20250270610A1, “Improving the Efficiency of PAL-Catalyzed Protein Ligation By A Cascade Enzymatic Scheme” (priority 2022, published 2025)

Key:
[1] = system: A431 cells which overexpresses EGFR; experiment: Flow cytometry assay of binding to A431 cells; assay type: cell-based; conditions: 100 nM, 30 min on ice; FIG. 5b and c (confocal and flow cytometry)
Protocol: FIG. 20 depicts the fluorescence intensity (measured by flow cytometry, λex=488 nm) of untreated A431 and MCF7 cells (ctrl) shown in dark grey fill (Blank), and cells treated with either GFP (100 nM, 30 min), or with ZEGFR-Fc-GFP (100 nM, 30 min) (shown by arrow), respectively. Forward scatter (FSC-A) versus side scatter (SSC-A) were used to gate intact cells.
To study binding capacities of ZEGFR-Fc-GFP, A-431 (ATCC, USA) and MCF-7 (ATCC, US) live cells were washed three times with PBS (HyClone, USA), trypsinized by 0.05% Trypsin-EDTA (Gibco, USA), and then resuspended in chilled DMEM (Gibco, USA) with 10% FBS (Gibco, USA). One million cells of each cell line were then incubated with ZEGFR-Fc-GFP (100 nM) and GFP (100 nM) on ice for 30 min. After incubation, the cells were washed with chilled PBS for three times and analyzed by the Fortessa X-20 flow cytometer (BD, USA). The cytometer was set to record 10,000 events per sample, to excite the fluorophore with 488 nm laser, and to collect emitting fluorescent signals in 530/30 nm. The generated raw data were analyzed by Flowjo™ 10 (BD, USA).

EGFR-positive A431 cells = experiment: Live cell confocal imaging of binding to A431 cells; assay type: cell-based; conditions: confocal fluorescence microscopy, 100 nM, 30 min on ice; FIG. 21
Protocol: ZEGFR-FC-GFP staining of the membrane was much brighter than that for GFP when the top left panel of each block is compared. The plasma membrane was stained with PKH26 red-fluorescent dye and is shown in the lower left panel and merged image of each block. Scale bar=20 μm.
To visualize ZEGFR-Fc-GFP binding activities, A431 and MCF-7 cells were seeded on an 8-well chamber slide (ibidi, USA) and incubated at 37° C. under 5% CO2 overnight. The cells were stained with 2 μM PKH26 red-fluorescent dye (Sigma, USA) for 10 min at 37° C. The stained cells were then incubated with ZEGFR-Fc-GFP (100nM) and GFP (100nM) on ice for 30 min. After incubation, the cells were washed with chilled PBS for three times and fixed with cold 4% formaldehyde for 15 min. The fixed cells were imaged by the LSM 980 confocal microscope (Zeiss, Germany). Microscopic key settings are as follows: 1) excitation laser wavelengths: 488 nm and 561 nm; 2) emission fillers: 507-552 nm and 575-620 nm; 3) imaging mode: Z-stack. The 3D Z-stack images were processed into 2D images by the technique MIP (maximum intensity projection) using the Zen software (Zeiss, Germany).

## ZEGFR-Fc-GFP: dual-ligated product of dimeric fusion protein ZEGFR-Fc-NQL (affibody ZEGFR and IgG Fc domain) with GI-GGGSGGGS-GFP
[1]
  binding towards A431 cells: specific binding
EGFR-positive A431 cells
  staining of the membrane compared with GFP: much brighter
